# Source: patent US11419869B2, “Dosage forms and regimens for amino acid compounds” (Pliant Therapeutics, Inc., priority 2019, dated 2022)
# Legend:
# lung Col1a1 expression = test: Precision cut lung slices, mice under chronic bleomycin exposure (Example B9); format: cell-based; conditions: 7 days culture, normalized to DMSO, FIG. 5B
# Description: Mice (C57BL/6) were administered 3 U/kg of bleomycin (Teva Pharmaceuticals; North Wales, Pa.) on Day 0 and 1 U/kg of bleomycin on days 14, 28, 42 and 56 via oropharyngeal aspiration while under anesthesia. At day 70, 14 days after the final bleomycin insult, precision cut lung slices were obtained. Following euthanization, 2% low gelling temp agarose was injected into the mouse lungs via the trachea. […] The lobes were then subjected to precision slicing to obtain samples for culture using a microtome (Compresstome VF-300-0Z, Precisionary; Greenville, N.C.). Individual slices were distributed in a multiwell culture plate and cultured for 7 days under control (DMSO) and test compound conditions. The viability of the slices over the course of culturing was confirmed by WST-1 assay of mitochondrial activity.
# During the culture period, slices in the control group were treated with DMSO and slices in the test group were treated with a DMSO solution of one of: the selective antibody αvβ6 inhibitor 3G9; the αvβ1-selective small molecule inhibitor; a combination of the selective antibody αvβ6 inhibitor 3G9 and the αvβ1-selective small molecule inhibitor; compound 5; and the small molecule ALK5 inhibitor. The selective αvβ1 and αvβ6 integrin inhibitors were analyzed at ≥their respective IC90 concentrations for inhibition of TGF-beta activation. […]
# [1] = SAD and MAD first-in-human pharmacokinetic studies (Example B12); format: in vivo
# Description: Healthy human subjects (N=85) were selected for single ascending dose (SAD) and multiple ascending dose (MAD) first-in-human studies. A solution for oral administration was prepared, containing 10 mg/mL of compound 5 in a 50:50 mixture of ORA-SWEET® SF (PERRIGO®, Allegan, Mich.) and sterile water for irrigation. Sufficient solution was administered orally to the subjects to provide between 15 mg/dose and 75 mg/dose of compound 5 in the SAD study and between 10 mg/dose and 40 mg/dose of compound 5 in the MAD study. Concentrations of compound 5 were measured in the subjects by obtaining a sample of plasma from each subject at desired intervals, and subjecting the plasma to liquid chromatography-mass spectrometry-mass spectrometry (LC-MS/MS), with quantification using a calibration curve determined from a range of solutions at standardized concentrations. The lower limit of quantitation (LLOQ) of the assay was 1 ng/mL and the calibration curve range was 1 to 500 ng/mL.
# pSMAD2:SMAD2 ratio = test: pSMAD2/SMAD2 in BAL from healthy human subjects (Example B13); format: in vivo; conditions: Day 7, subjects with Cmax above 700 ng/mL, compared to placebo group, 20 or 40 mg daily
# Description: In order to evaluate the change of pSMAD2 as a biomarker of TGF-β activity following administration of an integrin inhibitor, and to determine a therapeutically effective dosage and an effective blood plasma Cmax of the integrin inhibitor, healthy subjects were administered compound 5, a dual selective αvβ6/αvβ1-integrin inhibitor, and the corresponding Cmax levels and decrease in phosphorylation levels and were determined.
# Healthy non-smoking adult males without history of lung disease were selected as subjects and were randomized into 4 cohorts. Broncoalevaolar lavage samples were obtained from all subjects 1 day prior to start of treatment. Cohorts 1 and 2 were administered 20 mg of a compound daily, wherein 3 subjects were administered the dual selective αvβ6/αvβ1-integrin inhibitor (compound 5) per every 1 subject receiving a placebo compound. Cohorts 3 and 4 were administered 40 mg of a compound daily, wherein 3 subjects were administered the dual selective αvβ6/αvβ1-integrin inhibitor (compound 5) per every 1 subject receiving a placebo compound. BAL samples and blood samples were taken from all subjects on Day −1 (baseline) and on Day 7 (end of treatment).
compound,measurement,setting,value
"COCCN(CCCCc1ccc2c(n1)NCCC2)CC[C@H](Nc1ncnc2ccccc12)C(=O)O [Compound 5, (S)-4-((2-methoxyethyl) (4-(5,6,7,8-tetrahydro-1,8-naphthyridin-2-yl)butyl)amino)-2-(quinazolin-4-ylamino) butanoic acid]",lung Col1a1 expression,lung Col1a1 expression,decreased lung Col1a1 expression substantially
same,oral bioavailability and pharmacokinetics,[1]; healthy subjects,good oral bioavailability and pharmacokinetics
same,half-life,"[1]; plasma, healthy human subjects, oral solution, SAD 15-75 mg, MAD 10-40 mg, read-out: calculated half life",18 to 20 h
same,reduction in pSMAD2:SMAD2 ratio,pSMAD2:SMAD2 ratio,≥ 50%
